Measurements from patent US9464084B2, “P2X7 modulators” (Janssen Pharmaceutica NV, priority 2013, dated 2016).

Biological target: P2X7 (Homo sapiens (Human), UniProt Q99572)
Experiment: P2X7 antagonism in human PBMCs (LPS + Bz-ATP induced IL-1β release, ELISA);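 further: PBMCs from donor human blood, with a further 1.5 h incubation of the cells in the assay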
Assay type: cell-based
Settings: compound 1 μM, LPS 30 ng/ml, Bz-ATP 0.5 mM

Sequence of P2X7 (Q99572 whole entry): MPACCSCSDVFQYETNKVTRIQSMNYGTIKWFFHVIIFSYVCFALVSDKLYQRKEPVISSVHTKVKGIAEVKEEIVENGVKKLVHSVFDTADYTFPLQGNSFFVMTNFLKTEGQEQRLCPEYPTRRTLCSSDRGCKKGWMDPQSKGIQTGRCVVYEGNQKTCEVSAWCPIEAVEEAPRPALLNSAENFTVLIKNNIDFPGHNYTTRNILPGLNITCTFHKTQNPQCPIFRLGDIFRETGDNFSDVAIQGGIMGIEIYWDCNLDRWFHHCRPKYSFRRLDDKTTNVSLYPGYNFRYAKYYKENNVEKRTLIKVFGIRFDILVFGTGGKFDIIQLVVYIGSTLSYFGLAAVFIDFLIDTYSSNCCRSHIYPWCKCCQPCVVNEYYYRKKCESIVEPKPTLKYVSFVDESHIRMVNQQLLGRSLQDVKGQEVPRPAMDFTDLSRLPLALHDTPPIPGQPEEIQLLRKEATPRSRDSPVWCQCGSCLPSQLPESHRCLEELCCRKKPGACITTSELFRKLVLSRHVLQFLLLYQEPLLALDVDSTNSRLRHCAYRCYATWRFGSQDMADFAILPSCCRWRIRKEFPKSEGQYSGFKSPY

| PBMC 1 μM (% control) | Structure (SMILES) |
| --- | --- |
| 102.4 % control | O=C(c1ccc(F)cc1Cl)N1CCc2c(-c3ccccc3)n[nH]c2C1 [Example 323, (2-chloro-4-fluorophenyl)(3-phenyl-4,5-dihydro-1H-pyrazolo[3,4-c]pyridin-6(7H)-yl)methanone] |
| 5.3 % control | CC1c2ncn(-c3ccc(F)cc3)c2CCN1C(=O)c1cccc(C(F)(F)F)c1Cl (centres unmarked) [Example 18, (2-Chloro-3-(trifluoromethyl)phenyl)(1-(4-fluorophenyl)-4-methyl-6,7-dihydro-1H-imidazo[4,5-c]pyridin-5(4H)-yl)methanone] |
| 92.0 % control | Cn1nc2c(c1-c1ccc(F)cc1)CCN(C(=O)c1cccc(Cl)c1Cl)C2 [Example 326, (2,3-dichlorophenyl)(3-(4-fluorophenyl)-2-methyl-4,5-dihydro-2H-pyrazolo[3,4-c]pyridin-6(7H)-yl)methanone] |

Same assay, conditions: compound 10 μM, LPS 30 ng/ml, Bz-ATP 0.5 mM

| PBMC 10 μM (% control) | Structure (SMILES) |
| --- | --- |
| −1.0 % control | Cc1c(C(=O)N2Cc3nnn(-c4ncc(F)cn4)c3CC2C)cccc1C(F)(F)F (centres unmarked) [Example 206, 1-(5-Fluoropyrimidin-2-yl)-6-methyl-5-{[2-methyl-3-(trifluoromethyl)phenyl]carbonyl}-4,5,6,7-tetrahydro-1H-[1,2,3]triazolo[4,5-c]pyridine] |
| 7.1 % control | O=C(c1ccc(Cl)cc1Cl)N1CCc2c(nnn2-c2ncccn2)C1 [Example 257, (2,4-dichlorophenyl)(1-(pyrimidin-2-yl)-6,7-dihydro-1H-[1,2,3]triazolo[4,5-c]pyridin-5(4H)-yl)methanone] |
| 18.2 % control | C[C@@H]1Cc2c(nnn2-c2ccc(F)cc2)[C@@H](C)N1C(=O)c1cccc(C(F)(F)F)c1Cl [Example 284, (2-chloro-3-(trifluoromethyl)phenyl)((4R,6R)-1-(4-fluorophenyl)-4,6-dimethyl-6,7-dihydro-1H-[1,2,3]triazolo[4,5-c]pyridin-5(4H)-yl)methanone] |
| −5.5 % control | Cc1c(C(=O)N2CCc3c(nnn3-c3ncccn3)C2C)cccc1C(F)(F)F (centres unmarked) [Example 282, (4-methyl-1-(pyrimidin-2-yl)-6,7-dihydro-1H-[1,2,3]triazolo[4,5-c]pyridin-5(4H)-yl)(2-methyl-3-(trifluoromethyl)phenyl)methanone] |
| 15.4 % control | COc1ccnc(-n2nnc3c2CCN(C(=O)c2cccc(C(F)(F)F)c2Cl)[C@@H]3C)c1 (single isomer, unassigned) [Example 152, (S*)-(2-Chloro-3-(trifluoromethyl)phenyl)(1-(4-methoxypyridin-2-yl)-4-methyl-6,7-dihydro-1H-[1,2,3]triazolo[4,5-c]pyridin-5(4H)-yl)methanone] |
| 36.5 % control | C[C@@H]1c2ncn(-c3ccc(F)cn3)c2CCN1C(=O)c1cccc(C(F)(F)F)c1Cl (single isomer, unassigned) [Example 40, (R*)-(2-chloro-3-(trifluoromethyl)phenyl)(1-(5-fluoropyridin-2-yl)-4-methyl-6,7-dihydro-1H-imidazo[4,5-c]pyridin-5(4H)-yl)methanone] |
| 7.1 % control | C[C@@H]1c2nnn(-c3ncc(F)cn3)c2CCN1C(=O)c1cccc(C(F)(F)F)c1F (single isomer, unassigned) [Example 190, (R*)-(2-fluoro-3-(trifluoromethyl)phenyl)(1-(5-fluoropyrimidin-2-yl)-4-methyl-6,7-dihydro-1H-[1,2,3]triazolo[4,5-c]pyridin-5(4H)-yl)methanone] |

| Structure (SMILES) | PBMC 10 μM (% control) |
| --- | --- |
| C[C@@H]1c2ncn(-c3ccccn3)c2CCN1C(=O)c1cccc(C(F)(F)F)c1F (single isomer, unassigned) [Example 42, (4R*)-5-{[2-Fluoro-3-(trifluoromethyl)phenyl]carbonyl}-4-methyl-1-pyridin-2-yl-4,5,6,7-tetrahydro-1H-imidazo[4,5-c]pyridine] | 5.8 % control |
